Laboratory results taken from US9133199B2, “Pyrimidine derivatives as protein kinase inhibitors” (Cyclacel Limited, priority 2007, dated 2015).
Counter-ions that a name gives are not always drawn. Like-named read-outs stand apart in the source and are kept apart here. Values belong to the compound of their own block, whether it stands above or below them.

Key:
PLK2 = PLK2 (Homo sapiens (Human), UniProt Q9NYY3); assay: PLK selectivity: PLK2 inhibition; type: biochemical; conditions: for PLK2 IC50/PLK1 IC50: selectivity ratio
PLK2, sequence (Q9NYY3 whole entry): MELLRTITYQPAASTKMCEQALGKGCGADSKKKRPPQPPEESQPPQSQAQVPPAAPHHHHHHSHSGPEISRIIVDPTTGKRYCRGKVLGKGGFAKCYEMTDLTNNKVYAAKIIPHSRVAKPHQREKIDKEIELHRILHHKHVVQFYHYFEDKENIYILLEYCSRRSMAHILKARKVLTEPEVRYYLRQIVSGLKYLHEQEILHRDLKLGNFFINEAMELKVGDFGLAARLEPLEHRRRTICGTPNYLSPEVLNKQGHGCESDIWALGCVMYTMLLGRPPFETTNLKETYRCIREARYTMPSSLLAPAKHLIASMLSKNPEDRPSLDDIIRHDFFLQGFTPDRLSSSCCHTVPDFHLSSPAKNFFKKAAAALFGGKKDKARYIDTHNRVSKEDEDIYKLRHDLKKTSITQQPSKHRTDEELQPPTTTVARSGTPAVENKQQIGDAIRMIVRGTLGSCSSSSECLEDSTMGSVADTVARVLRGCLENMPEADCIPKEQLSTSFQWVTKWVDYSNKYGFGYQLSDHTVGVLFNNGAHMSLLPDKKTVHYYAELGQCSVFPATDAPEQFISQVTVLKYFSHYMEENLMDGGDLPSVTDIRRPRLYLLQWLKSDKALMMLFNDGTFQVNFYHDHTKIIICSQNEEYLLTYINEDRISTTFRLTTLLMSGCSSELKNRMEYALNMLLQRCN

PLK3 = PLK3 (Homo sapiens (Human), UniProt Q9H4B4); assay: PLK selectivity: PLK3 inhibition; type: biochemical; conditions: for PLK3 IC50/PLK1 IC50: selectivity ratio
PLK3, sequence (Q9H4B4 whole entry): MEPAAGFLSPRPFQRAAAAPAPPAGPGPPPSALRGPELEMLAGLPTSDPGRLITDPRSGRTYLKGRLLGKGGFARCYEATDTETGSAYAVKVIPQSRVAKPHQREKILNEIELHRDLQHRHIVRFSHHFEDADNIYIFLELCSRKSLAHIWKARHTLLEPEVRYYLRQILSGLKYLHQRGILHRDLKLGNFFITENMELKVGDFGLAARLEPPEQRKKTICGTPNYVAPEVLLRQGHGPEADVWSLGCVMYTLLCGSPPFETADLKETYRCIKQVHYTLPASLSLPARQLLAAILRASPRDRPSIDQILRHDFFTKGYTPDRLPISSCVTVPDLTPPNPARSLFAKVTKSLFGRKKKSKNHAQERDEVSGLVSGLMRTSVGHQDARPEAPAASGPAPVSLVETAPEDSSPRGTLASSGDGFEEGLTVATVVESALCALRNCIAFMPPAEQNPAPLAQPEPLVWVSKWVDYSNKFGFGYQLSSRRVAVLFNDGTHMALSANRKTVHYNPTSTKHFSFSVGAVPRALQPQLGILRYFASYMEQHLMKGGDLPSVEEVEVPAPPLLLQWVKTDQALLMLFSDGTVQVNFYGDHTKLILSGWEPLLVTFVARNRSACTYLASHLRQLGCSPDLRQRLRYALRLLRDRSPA

human PLK1 = human PLK1 (Homo sapiens (Human), UniProt P53350); assay: PLK1 protein kinase assay (CDC25C phosphorylation, [γ-32P]-ATP); type: biochemical
human PLK1, sequence (P53350 whole entry): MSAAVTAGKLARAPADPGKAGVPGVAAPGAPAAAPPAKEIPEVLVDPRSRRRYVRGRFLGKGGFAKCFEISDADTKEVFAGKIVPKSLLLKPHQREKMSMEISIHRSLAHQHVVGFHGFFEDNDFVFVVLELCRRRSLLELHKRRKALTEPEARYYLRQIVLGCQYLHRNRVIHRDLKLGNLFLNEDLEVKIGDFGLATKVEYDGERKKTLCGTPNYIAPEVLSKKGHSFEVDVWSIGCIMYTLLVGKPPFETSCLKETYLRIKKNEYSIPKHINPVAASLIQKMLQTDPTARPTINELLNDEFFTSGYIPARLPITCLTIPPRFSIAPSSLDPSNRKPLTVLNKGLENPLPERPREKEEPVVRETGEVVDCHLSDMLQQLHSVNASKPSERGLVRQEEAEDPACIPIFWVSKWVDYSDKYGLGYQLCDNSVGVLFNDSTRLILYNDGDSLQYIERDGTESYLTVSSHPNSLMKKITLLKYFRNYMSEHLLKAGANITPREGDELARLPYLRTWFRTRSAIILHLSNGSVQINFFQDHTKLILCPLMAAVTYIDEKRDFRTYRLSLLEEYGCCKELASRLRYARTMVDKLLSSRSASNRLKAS

[1] = Nephelometry kinetic solubility; type: physicochemical
Excerpt: If a DMSO solution of a water soluble compound is introduced into aqueous buffer, the mixture remains clear unless the aqueous solubility limit is reached. Above the solubility limit, precipitation occurs and light travelling through the turbid suspension is scattered. The measurement of the intensity of the scattered light is the basis of nephelometric solubility determination.
Selected compounds were screened using a nephelometer to identify the concentration at which turbidity occurs, thereby giving an indication of kinetic solubility. By nephelometry (2% DMSO: 98% phosphate buffered saline pH 7.5) compound [254] was freely soluble at 200 μM (>0.11 mg/mL) which is the highest concentration tested in this assay. In contrast, in the same nephelometry assay, the maximum soluble concentration of prior art Example [I-253] of WO 07/095,188 was determined to be 75 μM (Table 6).

A2780/ADR cells = assay: Cell viability assay (Alamar Blue, 72 hours), MDR line; type: cell-based, human; conditions: paired parental and MDR tumour cell lines (A2780-A2780/ADR, MES-SA-MES-SA/Dx5)
Excerpt: In vitro cell viability assays have been used to measure the effect of drug accumulation in paired parental and drug resistant tumour cell lines. The pairs used are the human ovarian carcinoma A2780 line with its MDR counterpart A2780/ADR and the human uterine sarcoma MES-SA line with its MDR counterpart MES-SA/Dx5 [Wesolowska O., et al. (2005) Anticancer Res., 25, 383-389].
Method: Cultivated human tumour cells of the ovarian cell line A2780 and its doxorubicin-resistant pair, A2780/ADR and the uterine cell line MES-SA and its doxorubicin-resistant pair, MES-SA/DX5 were seeded at 3000 cells per well in Nunc 96-well tissue culture plates, 100 μl per well in DMEM media containing 10% foetal calf serum and penicillin/streptomycin. […] The plates were then read at 544/595 nm.
The amount of Alamar Blue reagent reacted represents the metabolic activity of the cells. […] The values were calculated from the average of three individual measurements with blank correction (medium-only control).
The assay was performed on the Biomek FxP, automation platform from Beckman Coulter. The plates were read on the Paradigm plate reader supplied by Beckman Coulter. Asymmetry ratios were calculated as the IC50 value of the compound in the drug resistant cells divided by the IC50 value in the parental cells. […]

[2] = Pharmacokinetics in fasted conscious CD-1 mice (iv and oral); type: in vivo; conditions: compared to compounds A-G
Experimental: Preliminary investigations of the pharmacokinetics of selected compounds were carried out in fasted conscious CD-1 mice (25-30 g). Compounds were dosed as 1 mg/kg by intravenous administration or 5-10 mg/kg by oral route. Twenty one male mice per administration route (n=3 mice per time point) received dose solution by single bolus injection in the tail vein or by oral gavage. Blood samples were collected by cardiac puncture at 5, 15, 30, 60, 120, 240 and 360 min following iv administration and at 30, 60, 120, 240, 360, 480 and 1440 min following oral administration. Blood samples were collected into tubes containing the anti-coagulant lithium heparin, mixed and placed promptly on crushed ice. Plasma was derived from whole blood by centrifugation, frozen and stored at −80° C. prior to analysis. Plasma concentrations were determined by liquid chromatography-tandem mass spectrometry in electrospray positive mode (ESI LC/MS/MS) using calibration curves prepared in the appropriate matrix. The lower level of quantification (LLOQ) in all cases was ca. 5 ng/mL. Plasma concentration-time data was processed using the computer program WinNonLin version 5.2 from which areas under the plasma concentration-time curve (AUCall) were calculated by non-compartmental analysis using Model 201 (IV-bolus Input) or Model 200 (Extravascular Input).
FIG. 1 plots the area under the curve (AUC) for plasma concentration vs time for each compound tested. The dosing vehicle across these experiments remained constant (intravenous=citrate buffer pH 3, 1 mL/kg; oral=DMA/PEG400/10 mM Tartrate buffer, pH 4 (1:3:6), 5 ml/kg). FIG. 2 represents the same data in the form of oral bioavailability (% F) for each compound.

[3] = phosphate buffered saline with 2% DMSO, pH 7.5, aqueous buffer, kinetic from dmso stock, 2% DMSO: 98% phosphate buffered saline pH 7.5, highest concentration tested 200 μM, read-out: Nephelometry maximum soluble concentration

Compound: COc1cc(C(=O)NC2CN3CCC2CC3)ccc1Nc1ncc2c(n1)N(C1CCCC1)CC1(CCC1)C(=O)N2C (racemic) [Compound 218, (±)-4-(9′-cyclopentyl-5′-methyl-6′-oxo-5′,6′,8′,9′-tetrahydrospiro[cyclobutane-1,7′-pyrimido[4,5-b][1,4]diazepine]-2′-ylamino)-3-methoxy-N-(quinuclidin-3-yl)benzamide]
selectivity for PLK1 versus PLK2 compared to compound [I-4] (PLK2; relative to [I-4]): 7 fold
selectivity for PLK1 versus PLK2 compared to compound [I-64] of WO 07/095,188 (PLK2; relative to [I-64]): twice as selective
selectivity for PLK1 versus PLK2 compared to compound [I-76] (PLK2; relative to [I-76]): ~6 fold
PLK2 IC50/PLK1 IC50 (PLK2): 35
selectivity for PLK1 versus PLK3 compared to compound [I-4] (PLK3; relative to [I-4]): 5 fold
selectivity for PLK1 versus PLK3 compared to compound [I-64] (PLK3; relative to [I-64]): 5 fold
selectivity for PLK1 versus PLK3 compared to compound [I-76] (PLK3; relative to [I-76]): ~12 fold
PLK3 IC50/PLK1 IC50 (PLK3): 330

Compound: CN1C(=O)CCN(C2CCCC2)c2nc(NCc3ccsc3)ncc21 [Compound 106, 9-Cyclopentyl-5-methyl-2-[(thiophen-3-ylmethyl)-amino]-5,7,8,9-tetrahydro-pyrimido[4,5-b][1,4]di-azepin-6-one]
IC50 (human PLK1; Table 2): < 1000 nM

Compound: COc1cc(C(=O)NC2c3ccccc3C[C@H]2O)ccc1Nc1ncc2c(n1)N(C1CCCC1)CC1(CC1)C(=O)N2C (stereo partly drawn) [Compound 184, 4-(9-Cyclopentyl-5-methyl-6-oxo-6,7,8,9-tetrahydro-5H-spiro[pyrimido[4,5-b] [1,4]diazepin-3,1′-cyclopropane]-2-ylamino)-N-((1S,2R)-2-hydroxy-indan-1-yl)-3-methoxy-benzamide]
IC50 (human PLK1; Table 2): < 1000 nM

Compound: COc1cc(C(=O)NCC2CCCCN2C)ccc1Nc1ncc2c(n1)N(C1CCCC1)CCC(=O)N2C (centres unmarked) [Compound 202, 4-(9-Cyclopentyl-5-methyl-6-oxo-6,7,8,9-tetrahydro-5H-pyrimido[4,5-b] [1,4]diazepin-2-ylamino)-3-methoxy-N-(1-methyl-piperidin-2-ylmethyl)-benzamide]
IC50 (human PLK1; Table 2): < 1000 nM

Compound: CCN(CC)CCNC(=O)c1ccc(Nc2ncc3c(n2)N(CC2CC2)CCC(=O)N3C)c(OC)c1 [Compound 240, 4-(9-Cyclopropyl-methyl-5-methyl-6-oxo-6,7,8,9-tetrahydro-5H-pyrimido[4,5-b] [1,4]diazepin-2-ylamino)-N-(2-diethylamino-ethyl)-3-methoxy-benzamide]
IC50 (human PLK1; Table 2): < 100 nM

Compound: COc1cc(C(=O)N[C@H]2CC[C@H](N3CCN(CC4CC4)CC3)CC2)ccc1Nc1ncc2c(n1)N(C1CCCC1)CC(C)(C)C(=O)N2C [Compound 372, 4-(9-cyclopentyl-5,7,7-trimethyl-6-oxo-6,7,8,9-tetrahydro-5H-pyrimido[4,5-b][1,4]diazepin-2-ylamino)-N-((trans)-4-(4-(cyclopropylmethyl)piperazin-1-yl)cyclohexyl)-3-methoxybenzamide]
cellular efflux (MDR/parental cell asymmetry) (A2780/ADR cells): low cellular efflux

Compound: COc1cc(C(=O)N[C@H]2CC[C@H](N3CCN(CC4CC4)CC3)CC2)ccc1Nc1ncc2c(n1)N(C1CCCC1)CCC(=O)N2C [Compound 378, 4-(9-cyclopentyl-5-methyl-6-oxo-6,7,8,9-tetrahydro-5H-pyrimido[4,5-b][1,4]diazepin-2-ylamino)-N-((trans)-4-(4-(cyclopropylmethyl)piperazin-1-yl)cyclohexyl)-3-methoxybenzamide]
oral bioavailability (% F) [2]: markedly superior
systemic exposure (AUC of plasma concentration vs time) ([2]; iv 1 mg/kg and oral 5-10 mg/kg): markedly superior

Compound: COc1cc(C(=O)NC2CCC(N3CCCN(Cc4ccccc4)CC3)CC2)ccc1Nc1ncc2c(n1)N(C1CCCC1)CC1(CC1)C(=O)N2C (centres unmarked) [Compound 383, N-(4-(4-benzyl-1,4-diazepan-1-yl)cyclohexyl)-4-(9′-cyclopentyl-5′-methyl-6′-oxo-5′,6′,8′,9′-tetrahydrospiro[cyclopropane-1,7′-pyrimido[4,5-b][1,4]diazepine]-2′-ylamino)-3-methoxybenzamide]
IC50 (human PLK1; Table 3, read-out: PLK 1 IC50): < 100 nM

Compound: COc1cc(C(=O)N[C@H]2CC[C@@H](N3CCOCC3)CC2)ccc1Nc1ncc2c(n1)N(C1CCCC1)CC1(CC1)C(=O)N2C [Compound 391, 4-(9′-cyclopentyl-5′-methyl-6′-oxo-5′,6′,8′,9′-tetrahydrospiro[cyclopropane-1,7′-pyrimido[4,5-b][1,4]diazepine]-2′-ylamino)-3-methoxy-N-((cis)-4-morpholinocyclohexyl)benzamide]
IC50 (human PLK1; Table 3, read-out: PLK 1 IC50): 100 to 1000 nM

Compound: COc1cc(C(=O)NC2CCN(C)CC2)ccc1Nc1ncc2c(n1)N(C1CCCC1)CC1(CCC1)C(=O)N2C [WO 2007/095188 [I-64], reference compound]
PLK2 IC50/PLK1 IC50 (PLK2): 17
PLK3 IC50/PLK1 IC50 (PLK3): 67

Next, values leading:

IC50 (human PLK1; Table 2): < 1000 nM
Compound: COc1cc(C(=O)NC2CCN(C)CC2)ccc1Nc1ncc2c(n1)N(C(C)C)CC1(CC1)C(=O)N2C [Compound 99, 4-(9-Isopropyl-5-methyl-6-oxo-6,7,8,9-tetrahydro-5H-spiro[pyrimido[4,5-b] [1,4]diazepin-3,1′-cyclopropane]-2-ylamino)-3-methoxy-N-(1-methyl-piperidin-4-yl)-benzamide]

solubility [1, 3]: ≥ 200 µM
solubility ([1]; phosphate buffered saline with 2% DMSO, pH 7.5, aqueous buffer, kinetic from dmso stock, 2% DMSO: 98% phosphate buffered saline pH 7.5, read-out: Nephelometry soluble concentration): > 110 µg/mL
Compound: COc1cc(C(=O)NN2CCN(C)CC2)ccc1Nc1ncc2c(n1)N(C1CCCC1)CC1(CC1)C(=O)N2C [Compound 254, 4-(9′-cyclopentyl-5′-methyl-6′-oxo-5′,6′,8′,9′-tetrahydrospiro[cyclopropane-1,7′-pyrimido[4,5-b][1,4]diazepine]-2′-ylamino)-3-methoxy-N-(4-methylpiperazin-1-yl)benzamide]

solubility [1, 3]: 75 µM
Compound: COc1cc(C(=O)NN2CCCC2)ccc1Nc1ncc2c(n1)N(C1CCCC1)CC1(CC1)C(=O)N2C [Example [I-253] of WO 07/095188, reference compound]

PLK2 IC50/PLK1 IC50 (PLK2): 6
PLK3 IC50/PLK1 IC50 (PLK3): 26
Compound: COc1cc(C(=O)NC2CCN(C)CC2)ccc1Nc1ncc2c(n1)N(C1CCCC1)CC1(CC1)C(=O)N2C [WO 2007/095188 [I-76], reference compound]

solubility ([1]; pH 7.5, read-out: Nephelometry maximum soluble concentration): >200 µM
Compound: COc1cc(C(=O)NN2CCN(C)CC2)ccc1Nc1ncc2c(n1)N(C1CCCC1)CC1(CC1)C(=O)N2C [[254]•HCl, 4-(9′-cyclopentyl-5′-methyl-6′-oxo-5′,6′,8′,9′-tetrahydrospiro[cyclopropane-1,7′-pyrimido[4,5-b][1,4]diazepine]-2′-ylamino)-3-methoxy-N-(4-methylpiperazin-1-yl)benzamide•HCl]
